In patent publication US10538802B2, “Polypeptide substrate for the detection of von Williebrand factor cleaving protease ADAMTS13” (IMMUCOR GTI DIAGNOSTICS, INC., priority 2011, dated 2020):
No end group written: not given here.

Assays:
ADAMTS13 = target: T1, ADAMTS13 (Homo sapiens, UniProt Q76LX8); assay: ADAMTS13 activity assay with fluorogenic (FRET) polypeptide substrate and diluted plasma samples; type: biochemical; settings: for Assigned/Expected % Normal ADAMTS13 Activity Values Based on FRETS-VWF73 Substrate: incubation 30 Minutes
T1 construct: tissue Gen-Probe GTI Diagnostics (ATS-13 kit calibrators, controls and proficiency samples); George King Biomedical Inc. (FACT, A-FACT, B-FACT plasmas) ATS-13; host or cells: plasma
T1 sequence (Q76LX8 75-1427): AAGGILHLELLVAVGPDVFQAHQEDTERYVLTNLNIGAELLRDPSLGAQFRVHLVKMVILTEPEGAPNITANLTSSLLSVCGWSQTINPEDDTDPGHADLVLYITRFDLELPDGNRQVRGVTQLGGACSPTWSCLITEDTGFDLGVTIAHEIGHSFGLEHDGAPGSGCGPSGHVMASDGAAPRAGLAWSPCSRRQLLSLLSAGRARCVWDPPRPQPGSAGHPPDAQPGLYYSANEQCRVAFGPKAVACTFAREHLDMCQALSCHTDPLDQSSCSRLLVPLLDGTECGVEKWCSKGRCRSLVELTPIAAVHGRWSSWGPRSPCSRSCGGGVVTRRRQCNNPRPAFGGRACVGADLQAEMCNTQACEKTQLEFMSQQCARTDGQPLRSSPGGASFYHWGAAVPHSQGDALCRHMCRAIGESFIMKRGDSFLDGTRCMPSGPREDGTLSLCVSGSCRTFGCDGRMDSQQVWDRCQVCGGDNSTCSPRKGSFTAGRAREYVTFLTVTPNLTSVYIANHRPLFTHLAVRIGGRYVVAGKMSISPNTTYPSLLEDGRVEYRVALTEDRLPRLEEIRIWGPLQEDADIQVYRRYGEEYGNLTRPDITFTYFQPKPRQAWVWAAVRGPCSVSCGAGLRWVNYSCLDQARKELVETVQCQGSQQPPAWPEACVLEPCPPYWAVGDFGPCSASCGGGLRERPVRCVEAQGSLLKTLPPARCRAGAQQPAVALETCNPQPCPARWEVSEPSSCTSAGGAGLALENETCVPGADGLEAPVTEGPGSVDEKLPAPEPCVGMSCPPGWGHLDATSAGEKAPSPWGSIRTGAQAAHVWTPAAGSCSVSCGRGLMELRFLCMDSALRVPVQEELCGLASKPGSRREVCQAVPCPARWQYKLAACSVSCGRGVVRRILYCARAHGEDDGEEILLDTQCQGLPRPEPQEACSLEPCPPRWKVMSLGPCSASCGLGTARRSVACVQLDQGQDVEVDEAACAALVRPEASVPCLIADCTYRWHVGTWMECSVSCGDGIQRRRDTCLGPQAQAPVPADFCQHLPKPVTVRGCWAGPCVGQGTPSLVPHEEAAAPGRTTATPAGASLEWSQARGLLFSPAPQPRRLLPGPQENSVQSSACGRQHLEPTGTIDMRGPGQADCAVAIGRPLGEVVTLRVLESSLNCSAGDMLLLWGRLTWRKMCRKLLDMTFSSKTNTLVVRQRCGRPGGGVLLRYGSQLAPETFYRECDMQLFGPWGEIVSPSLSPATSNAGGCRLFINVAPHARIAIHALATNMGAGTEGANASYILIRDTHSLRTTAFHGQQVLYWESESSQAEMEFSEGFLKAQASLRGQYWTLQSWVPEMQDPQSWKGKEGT
Experimental: The procedure in this example was performed substantially as described in Kokame, K., Y. Nobe, Y. Kokubo, A. Okayama, and T. Miyata. 2005. FRETS-VWF73, a first fluorogenic substrate for ADAMTS13 assay. Br. J. Haematol. 129:93-100, but using SEQ ID NO: 1 in place of the 73 amino acid substrate described therein. The FRETS-VWF73 substrate solution was dissolved in 25% dimethyl sulphoxide/water to prepare the 100 microM stock solution. The GTI FRET4 SEQ ID NO: 1 was dissolved in 100% DMSO. Both substrates were diluted to equal concentrations using ATS-13 substrate buffer (Gen-Probe GT1 Diagnostics, Inc., U.S.A., Cat#ATS-13).
Plasma samples were diluted according to the ATS-13 Direction Insert using ATS-13 specimen diluent (Gen-Probe GTI Diagnostics, Inc., U.S.A., Cat# ATS-13). The diluted plasma samples were mixed with the diluted substrate and the fluorescence was read at 0, 5, 10, 15, 20, 30, 45 minutes using a Biotek FLX800 at the appropriate excitation and emission wavelengths for each substrate.
The fluorophore-quencher pair in the SEQ ID NO: 1 polypeptide substrate is FAM-5/TQ 2^Tm (Ex 485±20; Em 528±20; AAT Bioquest, Inc. Sunnyvale, Calif. U.S.A.). The fluorophore and quencher pair of FRETS-VWF73 (Nma/Dnp) described in Kokame has been substituted with FAM-5 and TQ_2 respectively in GTI_FRET4 SEQ ID NO: 1. Furthermore, in the SEQ ID NO: 1 polypeptide the position of the fluorophore (FAM-5) and quencher (TQ_2) has been swapped relative to the position of the fluorophore and quencher of the FRETS-VWF73 construct. Therefore, for GTI_FRET4 SEQ ID NO: 1, attachment of the fluorophore (FAM-5) occurs by substituting asparagine with cystine at position 15. The quencher (TQ_2) was attached by substituting glutamine with lysine at position 4 (FIG. 2 and Table 4).
For this experiment, substrate concentration and fluorescence reader settings determined on the previous experiment are used. The specimens tested (listed in Table 3), include a panel of proficiency samples prepared for use with ATS-13 (Gen-Probe GTI Diagnostics, Inc., U.S.A., Cat# ATS-13) which included samples with normal or deficient ADAMTS13 activity levels. In addition, six Factor Assay ConTrol plasma were used (2 FACT, 2 A-FACT and 2 B-FACT, from George King Biomedical Inc., Kansas, USA). The assays for the SEQ ID NO: 1 substrate and for the prior art FRETS-VWF73 assay were performed generally as according to the procedure described in Example 1. Substrate is prepared according to the conditions used for initial testing of the substrate, which prepared the molar amount of SEQ ID NO: 1 polypeptide substrate used in the assay to be equivalent to the molar amount of FRETS-VWF73 used in the prior art. The […] assays were read at 0, 5, 10, 15, 20, 30, 45 minutes.
Testing of substrate for cleavability by ADAMTS13 is determined as is generally described in Example 1. […]

[1] = Solubility of the SEQ ID NO: 7 polypeptide substrate (working solution centrifuged, pellet observed); type: physicochemical
Experimental: 250 .micro.L of working solution is prepared as above. The solution is vortexed vigorously and appears to be in solution. The solution is centrifuged at ˜12,000 g for about 2 minutes. After centrifugation, a very small pink pellet is noted at the bottom of the tube. […] Another tube is prepared as above substituting water for the substrate buffer. This tube is also centrifuged. Once again a pink pellet is observed in the bottom of the tube. The pellet observed in the water solution is noticeably larger than the pellet observed in the substrate buffer solution.

reaction time in the ADAMTS13 assay (ADAMTS13) [min]	trend line of the calibration curve (ADAMTS13)	difference between Calibrator A and E, dynamic range (ADAMTS13; Example 2, at 30 minutes) [RFU]	Assigned/Expected % Normal ADAMTS13 Activity Values Based on FRETS-VWF73 Substrate (ADAMTS13; sample Calibrator A) [% Normal]	Assigned/Expected % Normal ADAMTS13 Activity Values Based on FRETS-VWF73 Substrate (ADAMTS13; sample Calibrator B) [% Normal]	Assigned/Expected % Normal ADAMTS13 Activity Values Based on FRETS-VWF73 Substrate (ADAMTS13; sample Calibrator C) [% Normal]	Assigned/Expected % Normal ADAMTS13 Activity Values Based on FRETS-VWF73 Substrate (ADAMTS13; sample Calibrator D) [% Normal]	Assigned/Expected % Normal ADAMTS13 Activity Values Based on FRETS-VWF73 Substrate (ADAMTS13; sample Calibrator E) [% Normal]	Assigned/Expected % Normal ADAMTS13 Activity Values Based on FRETS-VWF73 Substrate (ADAMTS13; sample MON110707)	Assigned/Expected % Normal ADAMTS13 Activity Values Based on FRETS-VWF73 Substrate (ADAMTS13; sample Positive Control High)	Assigned/Expected % Normal ADAMTS13 Activity Values Based on FRETS-VWF73 Substrate (ADAMTS13; sample Positive Control Low)	Assigned/Expected % Normal ADAMTS13 Activity Values Based on FRETS-VWF73 Substrate (ADAMTS13; sample UAMS041609) [% Normal]	Assigned/Expected % Normal ADAMTS13 Activity Values Based on FRETS-VWF73 Substrate (ADAMTS13; sample VF) [% Normal]	solubility in water compared with substrate buffer ([1]; pellet size after centrifugation)	solubility in the working solution as prepared ([1]; substrate buffer, centrifuged ~12,000 g about 2 minutes)	Sequence
30	polynomial	2500	0	9	34	55	102	~90-100 % Normal	36-54 % Normal	6-17 % Normal	~35	~20			DREQAPNLVYMVTGNPASDEIKRLPGDIQVVPIGVGPNANVOELERIGWPNAPILIQDFLTLPREAPDLVLQR [FRETS-VWF73, reference compound]
													less soluble in water than in the buffer	not completely soluble	DREKAPNLVYMVTGCPASDEIKRLPGDIIGWPNAPILIQDFETLPREAPDLVLQR [GTI_FRET5]
